Laboratory results from patent US9828385B2, “Spiro-oxazolones” (Hoffmann-La Roche Inc., priority 2014, dated 2017).

molecular target: T1, human V1a receptor (Homo sapiens, UniProt P37288); assay: human V1a receptor binding studies (3H-Vasopressin, SPA beads); settings: membranes of HEK293 cells transiently transfected with human V1a receptor, Ki by Cheng-Prussoff from IC50, read-out: pKi hV1a (converted)
T1 construct: expressed in transfected cells; host or cells: HEK293 cells, transiently transfected; cell membranes
How it was run: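 Membranes from transiently transfected HEK293 cells expressing cloned human V1a receptor, on yttrium silicate SPA beads, competed against 4 nM 3H-vasopressin (added stock concentration) in Tris buffer with NaCl, KCl, CaCl2, MgCl2 for 1 h at room temperature. Nonspecific binding with cold vasopressin; IC50 by nonlinear fit, Ki via Cheng-Prusoff.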

T1 sequence (P37288 whole entry): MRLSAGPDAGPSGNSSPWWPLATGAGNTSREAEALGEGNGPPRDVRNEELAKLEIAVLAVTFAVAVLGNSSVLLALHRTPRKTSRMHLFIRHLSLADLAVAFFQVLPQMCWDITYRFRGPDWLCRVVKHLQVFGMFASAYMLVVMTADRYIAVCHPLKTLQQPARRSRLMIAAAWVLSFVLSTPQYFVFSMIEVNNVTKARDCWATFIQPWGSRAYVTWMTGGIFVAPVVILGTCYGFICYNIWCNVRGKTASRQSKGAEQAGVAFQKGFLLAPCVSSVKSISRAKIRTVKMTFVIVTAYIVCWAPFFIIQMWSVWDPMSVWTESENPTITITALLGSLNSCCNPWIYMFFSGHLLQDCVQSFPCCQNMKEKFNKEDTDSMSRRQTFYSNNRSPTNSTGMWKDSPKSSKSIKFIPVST

Row | SMILES | Ki [µM]
1 | CC1(Cc2ccccc2)OC(N2CCC3(CC2)OC(=O)c2ccccc23)=NC1=O (single isomer, unassigned; enantiomer a) [Example 72, 1′-[5-Benzyl-5-methyl-4-oxo-4,5-dihydro-1,3-oxazol-2-yl]-3H-spiro[2-benzofuran-1,4′-piperidin]-3-one enantiomer A] | 0.0251
2 | CC1(Cc2ccc(Cl)cc2)OC(N2CCC3(CC2)OC(=O)c2ccccc23)=NC1=O (single isomer, unassigned; enantiomer a) [Example 80, 1′-[5-(4-Chlorobenzyl)-5-methyl-4-oxo-4,5-dihydro-1,3-oxazol-2-yl]-3H-spiro[2-benzofuran-1,4′-piperidin]-3-one enantiomer A] | 0.02
3 | CCCCC1OC(N2CCC3(CC2)OC(=O)c2ccccc23)=NC1=O (single isomer, unassigned; enantiomer b) [Example 6, 1′-[5-Butyl-4-oxo-4,5-dihydro-1,3-oxazol-2-yl]-3H-spiro[2-benzofuran-1,4′-piperidin]-3-one enantiomer B] | 0.02
4 | O=C1N=C(N2CCC3(CC2)OCc2ccccc23)OC1CC1CCCC1 (single isomer, unassigned; enantiomer b) [Example 14, 5-(Cyclopentylmethyl)-2-(1′H,3H-spiro[2-benzofuran-1,4′-piperidin]-1′-yl)-1,3-oxazol-4(5H)-one enantiomer B] | 0.00251
5 | O=C1OC2(CCN(C3=NC(=O)C(CC4CCCC4)O3)CC2)c2ccccc21 (single isomer, unassigned; enantiomer b) [Example 16, 1′-[5-(Cyclopentylmethyl)-4-oxo-4,5-dihydro-1,3-oxazol-2-yl]-3H-spiro[2-benzofuran-1,4′-piperidin]-3-one enantiomer B] | 0.0126
6 | CC1(Cc2ccccc2)OC(N2CCC3(CC2)OC(=O)c2ccccc23)=NC1=O (single isomer, unassigned; enantiomer b) [Example 73, 1′-[5-Benzyl-5-methyl-4-oxo-4,5-dihydro-1,3-oxazol-2-yl]-3H-spiro[2-benzofuran-1,4′-piperidin]-3-one enantiomer B] | 0.251
7 | CC1(Cc2ccc(Cl)cc2)OC(N2CCC3(CC2)OC(=O)c2ccccc23)=NC1=O (single isomer, unassigned; enantiomer b) [Example 81, 1′-[5-(4-Chlorobenzyl)-5-methyl-4-oxo-4,5-dihydro-1,3-oxazol-2-yl]-3H-spiro[2-benzofuran-1,4′-piperidin]-3-one enantiomer B] | 0.501
8 | CCCCC1OC(N2CCC3(CC2)OCc2ccccc23)=NC1=O (centres unmarked) [Example 2, 5-Butyl-2-(1′H,3H-spiro[2-benzofuran-1,4′-piperidin]-1′-yl)-1,3-oxazol-4(5H)-one] | 0.00501
9 | CC(C)CC1OC(N2CCC3(CC2)OCc2ccccc23)=NC1=O (centres unmarked) [Example 7, 5-(2-Methylpropyl)-2-(1′H,3H-spiro[2-benzofuran-1,4′-piperidin]-1′-yl)-1,3-oxazol-4(5H)-one] | 0.02
10 | C=C(C)CC1OC(N2CCC3(CC2)OCc2ccccc23)=NC1=O (centres unmarked) [Example 9, 5-(2-Methylprop-2-en-1-yl)-2-(1′H,3H-spiro[2-benzofuran-1,4′-piperidin]-1′-yl)-1,3-oxazol-4(5H)-one] | 0.002
11 | C=C(CC1OC(N2CCC3(CC2)OCc2ccccc23)=NC1=O)C(F)(F)F (centres unmarked) [Example 10, 2-(1′H,3H-Spiro[2-benzofuran-1,4′-piperidin]-1′-yl)-5-[2-(trifluoromethyl)prop-2-en-1-yl]-1,3-oxazol-4(5H)-one] | 0.00398
12 | O=C1N=C(N2CCC3(CC2)OCc2ccccc23)OC1c1ccccc1 (centres unmarked) [Example 12, 5-Phenyl-2-(1′H,3H-spiro[2-benzofuran-1,4′-piperidin]-1′-yl)-1,3-oxazol-4(5H)-one] | 0.316
13 | COc1ccc2c(c1)C(=O)OC21CCN(C2=NC(=O)C(Cc3ccccc3)O2)CC1 (centres unmarked) [Example 31, 1′-(5-Benzyl-4-oxo-4,5-dihydro-1,3-oxazol-2-yl)-5-methoxy-3H-spiro[2-benzofuran-1,4′-piperidin]-3-one] | 0.1
14 | O=C1N=C(N2CCC3(CC2)OCc2ccccc23)OC1C(O)c1ccc(Cl)cc1 (centres unmarked) [Example 40, 5-[(4-Chlorophenyl)(hydroxy)methyl]-2-(1′H,3H-spiro[2-benzofuran-1,4′-piperidin]-1′-yl)-1,3-oxazol-4(5H)-one] | 0.00398

Results, then the compound that gave them:

Row | Ki [µM] | SMILES
15 | 0.251 | O=C1OC2(CCN(C3=NC(=O)C(Cc4ccccc4)O3)CC2)c2ccccc21 (single isomer, unassigned; enantiomer a) [Example 20, 1′-[5-Benzyl-4-oxo-4,5-dihydro-1,3-oxazol-2-yl]-3H-spiro[2-benzofuran-1,4′-piperidin]-3-one enantiomer A]
16 | 0.00501 | O=C1OC2(CCN(C3=NC(=O)C(Cc4ccccc4)O3)CC2)c2ccccc21 (single isomer, unassigned; enantiomer b) [Example 21, 1′-[5-Benzyl-4-oxo-4,5-dihydro-1,3-oxazol-2-yl]-3H-spiro[2-benzofuran-1,4′-piperidin]-3-one enantiomer B]
17 | 0.0794 | CCCC1OC(N2CCC3(CC2)OCc2ccccc23)=NC1=O (centres unmarked) [Example 1, 5-Propyl-2-(1′H,3H-spiro[2-benzofuran-1,4′-piperidin]-1′-yl)-1,3-oxazol-4(5H)-one]
18 | 0.158 | C=CCC1OC(N2CCC3(CC2)OCc2ccccc23)=NC1=O (centres unmarked) [Example 8, 5-(Prop-2-en-1-yl)-2-(1′H,3H-spiro[2-benzofuran-1,4′-piperidin]-1′-yl)-1,3-oxazol-4(5H)-one]
19 | 0.0501 | CC#CCC1OC(N2CCC3(CC2)OCc2ccccc23)=NC1=O (centres unmarked) [Example 11, 5-(But-2-yn-1-yl)-2-(1′H,3H-spiro[2-benzofuran-1,4′-piperidin]-1′-yl)-1,3-oxazol-4(5H)-one]
20 | 0.00398 | O=C1N=C(N2CCC3(CC2)OCc2ccccc23)OC1Cc1ccccc1 (centres unmarked) [Example 17, 5-Benzyl-2-(1′H,3H-spiro[2-benzofuran-1,4′-piperidin]-1′-yl)-1,3-oxazol-4(5H)-one]
21 | 0.00158 | O=C1N=C(N2CCC3(CC2)OCc2ccccc23)O[C@@H]1Cc1ccccc1 [Example 18, (+)-(5R)-5-Benzyl-2-(1′H,3H-spiro[2-benzofuran-1,4′-piperidin]-1′-yl)-1,3-oxazol-4(5H)-one]
22 | 0.0251 | O=C1N=C(N2CCC3(CC2)OCc2ccccc23)O[C@H]1Cc1ccccc1 [Example 19, (−)-(5S)-5-Benzyl-2-(1′H,3H-spiro[2-benzofuran-1,4′-piperidin]-1′-yl)-1,3-oxazol-4(5H)-one]
23 | 0.00126 | CC1OC2(CCN(C3=NC(=O)C(Cc4ccccc4)O3)CC2)c2ccccc21 (centres unmarked) [Example 22, 5-Benzyl-2-(3-methyl-1′H,3H-spiro[2-benzofuran-1,4′-piperidin]-1′-yl)-1,3-oxazol-4(5H)-one]
24 | 0.00251 | O=C1N=C(N2CCC3(CC2)OCc2cccc(F)c23)OC1Cc1ccccc1 (centres unmarked) [Example 23, 5-Benzyl-2-(7-fluoro-1′H,3H-spiro[2-benzofuran-1,4′-piperidin]-1′-yl)-1,3-oxazol-4(5H)-one]
25 | 0.00631 | O=C1N=C(N2CCC3(CC2)OCc2c(F)cccc23)OC1Cc1ccccc1 (centres unmarked) [Example 24, 5-Benzyl-2-(4-fluoro-1′H,3H-spiro[2-benzofuran-1,4′-piperidin]-1′-yl)-1,3-oxazol-4(5H)-one]
26 | 0.00631 | O=C1N=C(N2CCC3(CC2)OCc2ccc(F)cc23)OC1Cc1ccccc1 (centres unmarked) [Example 25, 5-Benzyl-2-(6-fluoro-1′H,3H-spiro[2-benzofuran-1,4′-piperidin]-1′-yl)-1,3-oxazol-4(5H)-one]
27 | 0.000631 | CC1(C)OC2(CCN(C3=NC(=O)C(Cc4ccccc4)O3)CC2)c2ccccc21 (centres unmarked) [Example 26, 5-Benzyl-2-(3,3-dimethyl-1′H,3H-spiro[2-benzofuran-1,4′-piperidin]-1′-yl)-1,3-oxazol-4(5H)-one]
28 | 0.0158 | O=C1OC2(CCN(C3=NC(=O)C(Cc4ccccc4)O3)CC2)c2ccc(F)cc21 (centres unmarked) [Example 27, 1′-(5-Benzyl-4-oxo-4,5-dihydro-1,3-oxazol-2-yl)-5-fluoro-3H-spiro[2-benzofuran-1,4′-piperidin]-3-one]
29 | 0.0794 | O=C1N=C(N2CCC3(CC2)OCc2ncccc23)OC1Cc1ccccc1 (centres unmarked) [Example 28, 5-Benzyl-2-(1′H,7H-spiro[furo[3,4-b]pyridine-5,4′-piperidin]-1′-yl)-1,3-oxazol-4(5H)-one]
30 | 0.01 | O=C1N=C(N2CCC3(CC2)OCc2cccnc23)OC1Cc1ccccc1 (centres unmarked) [Example 29, 5-Benzyl-2-(1′H,5H-spiro[furo[3,4-b]pyridine-7,4′-piperidin]-1′-yl)-1,3-oxazol-4(5H)-one]
31 | 0.2 | O=C1OC2(CCN(C3=NC(=O)C(Cc4ccccc4)O3)CC2)c2cccc(F)c21 (centres unmarked) [Example 30, 1′-(5-Benzyl-4-oxo-4,5-dihydro-1,3-oxazol-2-yl)-4-fluoro-3H-spiro[2-benzofuran-1,4′-piperidin]-3-one]
32 | 0.0631 | O=C1OC2(CCN(C3=NC(=O)C(Cc4ccccc4)O3)CC2)c2ccc(Br)cc21 (centres unmarked) [Example 32, 1′-(5-Benzyl-4-oxo-4,5-dihydro-1,3-oxazol-2-yl)-5-bromo-3H-spiro[2-benzofuran-1,4′-piperidin]-3-one]
33 | 0.0126 | O=C1N=C(N2CCC3(CC2)SCc2ccccc23)OC1Cc1ccccc1 (centres unmarked) [Example 33, 5-Benzyl-2-(1′H,3H-spiro[2-benzothiophene-1,4′-piperidin]-1′-yl)-1,3-oxazol-4(5H)-one]
34 | 0.01 | O=C1N=C(N2CCC3(CC2)c2ccccc2CS3(=O)=O)OC1Cc1ccccc1 (centres unmarked) [Example 34, 5-Benzyl-2-(2,2-dioxido-1′H,3H-spiro[2-benzothiophene-1,4′-piperidin]-1′-yl)-1,3-oxazol-4(5H)-one]
35 | 0.002 | O=C1N=C(N2CCC3(CC2)OCc2ccccc23)OC1Cc1ccc(Cl)cc1 (centres unmarked) [Example 35, 5-(4-Chlorobenzyl)-2-(1′H,3H-spiro[2-benzofuran-1,4′-piperidin]-1′-yl)-1,3-oxazol-4(5H)-one]
